{"source": "patent US8597616B2", "about": "(priority 2007, dated 2013)", "key": {"[1]": {"test_system": "swine model of cardiac arrest", "conditions": "in vivo"}, "normovolemic swine model": {"test_system": "normovolemic swine model", "conditions": "in vivo"}}, "data": [{"smiles": "CNC[C@H](O)c1ccc(O)c(O)c1", "note": "[epinephrine, (R)-4-(1-hydroxy-2-(methylamino)ethyl)benzene-1,2-diol]", "values": [{"measurement": "peak MAP", "setting": "[1]", "value": 90, "unit": "mmHg"}, {"measurement": "sustained pressure over baseline", "setting": "[1]", "value": "greater than 50 mmHg"}, {"measurement": "time post injection at which increases in MAP were detected", "setting": "[1]", "value": "10 to 20", "unit": "s"}, {"measurement": "time post injection to peak MAP", "setting": "[1]", "value": "≤ 60", "unit": "s"}, {"measurement": "time to MAP peak at sustained pressure over baseline", "setting": "[1]", "value": "≤ 80", "unit": "s"}, {"measurement": "time until physiological effects (increase in MAP over baseline MAP) were detected", "setting": "[1]", "value": "< 20", "unit": "seconds"}, {"measurement": "time until rapid and sustained MAP occurred", "setting": "[1]", "value": "< 60", "unit": "s"}, {"measurement": "increase of MAP over baseline", "setting": "normovolemic swine model", "value": "more than 60 mmHg"}, {"measurement": "time post injection at which increases in MAP were detected", "setting": "normovolemic swine model", "value": "10 to 20", "unit": "s"}, {"measurement": "time post injection to peak MAP", "setting": "normovolemic swine model", "value": "≤ 60", "unit": "s"}, {"measurement": "sustained MAP", "setting": "normovolemic swine model; 0.4 mg/kg", "value": "more than 60 mmHg"}, {"measurement": "time post-injection at which an increase in MAP was detected", "setting": "normovolemic swine model; iv", "value": 30, "unit": "s"}, {"measurement": "time from administration until absorbed and placed into the circulating blood", "setting": "normovolemic swine model; swine", "value": "10 to 20", "unit": "s"}]}]}
